From patent US6969721B2, “Tricyclic-2-pyridone compounds useful as HIV reverse transcriptase inhibitors” (Bristol-Myers Squibb Pharma, priority 2000, dated 2005)
≈ marks a conversion by molar mass, not a printed value.

Test system: HIV-1 (RF)
Test: HIV RNA assay, microplate based compound evaluation in HIV-1 infected MT-2 cells
Assay type: cell-based
Details: Human immunodeficiency virus 1, MT2, 72 h; HIV-1 (RF) in MT-2 cells, 3 days culture; virus dilutions selected to give this value; read-out: IC90 value (concentration of compound required to reduce the HIV RNA level by 90%)
Method: MT-2 and MT-4 cells were maintained in RPMI 1640 supplemented with 5% fetal calf serum (FCS) for MT-2 cells or 10% FCS for MT-4 cells, 2 mM L-glutamine and 50 μg/mL gentamycin, all from Gibco. HIV-1 RF was propagated in MT-4 cells in the same medium. Virus stocks were prepared approximately 10 days after acute infection of MT-4 cells and stored as aliquots at −70° C. Infectious titers of HIV-1(RF) stocks were 1-3×10^7 PFU (plaque forming units)/mL as measured by plaque assay on MT-2 cells (see below) Each aliquot of virus stock used for infection was thawed only once.
For evaluation of antiviral efficacy, cells to be infected were subcultured one day prior to infection. […]
Cell lysates or purified RNA in 3 M or 5 M GED were mixed with 5 M GED and capture probe to a final guanidinium isothiocyanate concentration of 3 M and a final biotin oligonucleotide concentration of 30 nM. […] Immobilized alkaline phosphatase activity was detected by addition of 100 μL of 0.2 mM 4-methylumbelliferyl phosphate (MUBP, JBL Scientific) in buffer (2.5 M diethanolamine pH 8.9 (JBL Scientific), 10 MM MgCl2, 5 mM zinc acetate dihydrate and 5 mM N-hydroxyethyl-ethylene-diamine-triacetic acid). […] Fluorescence at […] was measured using a microplate fluorometer (Dynateck) exciting at […]. […]

## Nc1ccn([C@H]2CC[C@@H](CO)O2)c(=O)n1 [ddC, 2′,3′-dideoxycytidine]
  IC90: 0.2 µg/mL (≈ 0.947 µM)
